From patent US20210379062A1, “The use of a H3R inverse agonist for the treatment of excessive daytime sleepiness associated with parkinson's disease (PD)” (Novartis AG, priority 2018, published 2021)
pEC50, pKi: −log10 of the molar value. Where “and” joins values, the source holds several entries; their conditions need not be identical. Equal entries are not always repeated.

Legend:
[1] = biological target: T1, Human histamine H3 receptor (Homo sapiens, UniProt Q9Y5N1); assay: Radioligand binding assay with [3H]-N-α-methylhistamine
T1 construct: purchased PerkinElmer
Experimental: Human histamine H3 receptor membrane (PerkinElmer) were incubated with 1.0 nM [^3H]—N-α-methylhistamine (PerkinElmer) in the presence or absence of increasing concentrations of ligands for H3 receptor competition binding. The binding incubations were in a final volume of 0.1 ml buffer (50 mMTris pH 7.5, 5 mM MgCl2) at 28° C. for 120 minutes. Thioperamide (10 μM) was used to define non-specific binding.
All binding reactions were terminated by transferring 70 μl binding reaction from the reaction plate into filtration plates (Zeba 96-well Spin Desalting Plates, Thermo Scientific), followed by centrifugation at 1000 g for 2 min to collect the protein with bound radioligand. 200 μl of microscint-40 were added to determine the bound radiolabel by a Wallac Microbeta Trilux 2450 (Perkin Elmer). For all radioligand competition binding assays, IC50 values and Hill slopes were determined by GraphPad Prism: log(inhibitor) vs. response with variable slope. Ki was calculated using the equation in Biochem. Pharmacol. 1973. 22 (23), 3099-3108, from Cheng and Prusoff: Ki=IC50/{1+([radioligand]/Kd)}.

Rat brain and plasma PK = assay type: in vivo; conditions: 10 mg/kg oral, rats
[2] = biological target: H3 receptors in the brain (Homo sapiens, UniProt Q9Y5N1); assay: PET brain H3 receptor occupancy study with [11C]MK-8278 in healthy volunteers; assay type: in vivo
Experimental: An open-label, adaptive design study was performed in healthy volunteers to characterize regional brain H3 receptor occupancy following single dose of Compound (I) by using positron emission tomography (PET) with the radioligand [^11C]MK-8278 (Van Laere, K. J. et al, Journal of Nuclear Medicine, 2014, 55: 65-72). The primary objective of this study was to evaluate the plasma concentration of Compound (I) leading to 50% occupancy of H3 receptors in the brain (EC50). A total of 6 subjects were enrolled into the study and were scanned in three cohorts of two subjects each. Prior to dosing with Compound (I), each subject underwent a baseline PET scan to assess binding of [^11C]MK-8278 to H3R in the absence of Compound (I). Subjects subsequently received single oral doses of Compound (I) and then underwent two post-dose PET scans. Subjects of cohort 1 received a single oral dose of 300 mg of Compound (I), corresponding to the single dose maximum tolerated dose (MTD) determined from the Phase I study after single oral dose of Compound (I). These subjects underwent two post-dose PET scans, at 3 hours and 27 hours after dosing. The doses and scan timings for the subsequent cohorts were selected based on interim data analyses following the completion of the preceding cohort(s). Subjects of cohorts 2 and 3 received a single oral dose of 10 mg and 0.3 mg, respectively. Compound (I) was administered as capsules in cohorts 1 and 2, whereas cohort 3 received Compound (I) as an oral solution. […] The first post-dose PET scan for cohorts 2 and 3 was acquired at 3 hours and the second one at 27 hours and 8 hours after dosing, respectively.
The binding was consistent with both the known distribution of H3 receptors and previous [^11C]MK-8278 data (Van Laere, K. J. et al, Journal of Nuclear Medicine, 2014, 55: 65-72). The kinetics of [^11C]MK-8278 in brain were analyzed using different modelling approaches, such as the one- and two-tissue compartment (1TC, 2TC) models, multilinear analysis (MA1; Ichise, M. et al., Journal of Cerebral Blood Flow and Metabolism, 2002, 22: 1271-1281) and the Logan graphical method (Logan, J. et al., Journal of Cerebral Blood Flow and Metabolism, 1990, 10(5): 740-747). All methods produced similar results, but the 2TC model was the most appropriate to derive regional VT values. Tissue time-activity curves (TACs) were generated for all scans and were characterized by a peak at around 5-15 minutes post-injection, followed by washout. After administration of Compound (I), regional binding of [^11C]MK-8278 was reduced compared to baseline scans, indicating engagement of Compound (I) with the target. The occupancy plot method proposed by Lassen (Lassen, N. A. et al., Journal of Cerebral Blood Flow and Metabolism, 1995, 15 (1): 152-165; Cunningham, V. J. et al., Journal of Cerebral Blood Flow and Metabolism, 2010, 30 (1): 46-50) was applied to estimate whole-brain H3 receptor occupancy for each post-dose PET scan. This method also provided consistent estimates of the non-displaceable component (VND).
The relationship between plasma concentration of Compound (I) and H3 receptor occupancy was characterized plotting occupancy estimates against corresponding plasma concentration data (measured at the start of each post-dose PET scan). The RO versus concentration was analyzed using the Emax model:
Where RO=Receptor occupancy; Emax=maximum receptor occupancy; Cp=plasma concentration of Compound (I) during PET scan; EC50=plasma concentration leading to 50% of maximum change in RO.

T1 sequence (Q9Y5N1 whole entry): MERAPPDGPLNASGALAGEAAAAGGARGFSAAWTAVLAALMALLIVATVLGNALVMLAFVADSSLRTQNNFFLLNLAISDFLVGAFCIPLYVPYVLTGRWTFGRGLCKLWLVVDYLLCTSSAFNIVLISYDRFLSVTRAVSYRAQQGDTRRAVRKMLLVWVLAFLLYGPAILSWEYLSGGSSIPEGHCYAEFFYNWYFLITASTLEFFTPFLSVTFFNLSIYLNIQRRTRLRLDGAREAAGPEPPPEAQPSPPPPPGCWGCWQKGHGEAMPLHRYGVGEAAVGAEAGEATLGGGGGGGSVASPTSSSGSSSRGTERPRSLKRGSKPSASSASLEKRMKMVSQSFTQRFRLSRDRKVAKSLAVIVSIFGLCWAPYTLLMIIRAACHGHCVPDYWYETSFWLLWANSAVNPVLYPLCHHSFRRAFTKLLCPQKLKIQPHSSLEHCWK
H3 receptors in the brain, sequence (Q9Y5N1 whole entry): as above

**Q.** Which results are given for `Cn1nc(N2CCC(OC(=O)N3CCN(C4CCC4)CC3)CC2)ccc1=O` [Compound (I), 1-(1-methyl-6-oxo-1,6-dihydropyridazin-3-yl)piperidin-4-yl 4-cyclobutylpiperazine-1-carboxylate]?
**A.** affinity fold higher compared to bavisant ([1]; human H3 receptors): 12 fold; affinity fold higher compared to pitolisant ([1]; human H3 receptors): 18 fold; pKi ([1]; human recombinant H3R, 1.0 nM [3H]-N-α-methylhistamine, Cheng-Prusoff): 8.07; total brain exposure (Rat brain and plasma PK): intermediate; brain exposure (Rat brain and plasma PK; 8 h time point): close to detection limit; concentration at 4 h (Rat brain and plasma PK; male, Sprague-Dawley, rat, brain, 4 h time point, read-out: brain exposure): 21 ng/g; Emax (maximum receptor occupancy) ([2]; Emax model of PK-RO relationship): 96.1% and 96.16%; Receptor occupancy (RO) ([2]; first cohort, single oral dose 300 mg, 3 hours post-dose, both subjects): higher than 95%; Receptor occupancy (RO) ([2]; first cohort, single oral dose 300 mg, 27 hours post-dose, both subjects): higher than 95%; pEC50 ([2]; read-out: EC50 (plasma concentration leading to 50% occupancy of H3 receptors), Emax model of PK-RO relationship, plasma concentration): 9.11; Receptor occupancy (RO) ([2]; second cohort, single oral dose 10 mg, 3 hours post dose): similarly high; Receptor occupancy (RO) ([2]; second cohort, single oral dose 10 mg, 27 hours post dose): decreased; Receptor occupancy (RO) ([2]; third cohort, single oral dose 0.3 mg, 3 h and 8 h post dose): generally lower than in the other cohorts
